Test results: patent US20220000967A1, “SYNTHETIC PEPTIDES INDUCING IMMUNOGENIC CELL DEATH” (SORBONNE UNIVERSITE, priority 2018, published 2022)
Where two headings read alike, the source gives them in different places.

Tests used:
[1] = system: L5178Y-R tumor; experiment: PKHB1 treatment of L5178Y-R tumor-bearing mice; format: in vivo, BALB/c mice
Method: The heparinized blood acquired from mice, was assessed using the Automatic Hematology Analyzer KontroLab. Blood smears were performed and fixed with methanol, stained with Wright's, and observed under the microscope to perform differential blood white cells counts.
Six-to-eight-week-old BALB/c female mice were maintained in controlled environmental conditions (25° C. and 12h light/dark cycle) and were supplied with rodent food (Science diet) and water ad libitum. • Prophylactic vaccinations: L5178Y-R cells (1.5, 3, 5×10^6) were treated with 300 μM of PKHB1 (CC100) for 2h. Cell death was confirmed using trypan blue staining and flow cytometry. Treated cells were inoculated subcutaneously in 100 μl PBS into the left hind of the leg, whereas 2×10^6 untreated control cells were inoculated into the right hind 7 days later (42). • Tumor establishment and measurement: Tumor was established by the subcutaneous injection of 1×10^6 L5178Y-R cells in 100 μL PBS, into the left hind of the leg. Tumor volume and weight were measured three times per week using a caliper (Digimatic Caliper Mitutoyo Corporation, Japan) and a digital scale (American Weigh Scale-600-BLK, USA). When the tumor reached 100 mm^3 the first PKHB1 injection (200 μg) was applied (day 0). Tumor volume was determined with the formula: tumor volume (mm3)=[…]*A*B*C. Long-term memory assay: Mice in complete remission after PKHB1 treatment, were rechallenged with 2×10^6 cells in 100 μL of PBS, into the opposite limb, and tumor volume was measured like described above.
Tissues and organs were obtained and fixed in 10% neutral formalin, embedded in paraffin, sectioned (5 µm thickness) and stained with H&E (Sigma-Aldrich, St Louis, Mo., USA). Histopathological analysis was done by an external veterinarian pathologist (National professional certificate 2593012). Immunohistochemistry was done using the appropriate primary antibody (CD4/CD8) and adding the biotinylated secondary antibody. Finally, hematoxylin-counterstained slides are coverslipped using resin as mounting solution and observed under microscopy.

[2] = system: CEM; experiment: Cell death by Annexin-V-APC/PI flow cytometry; format: cell-based, human; settings: 2h; for cell death percentage: PKHB1 200 μM
Method: (§1) CEM, MOLT-4 (T-acute lymphoblastic leukemia, T-ALL), and L5178Y-R (murine lymphoblastic T cell line) were obtained from ATCC. Human and murine PBMCs, human CD4+ and CD8+ T cells, and primary lymphoid organ's cells were obtained from healthy individuals. Cells were maintained in RPMI-1640 medium supplemented with 10% of fetal bovine serum, 2 mM L-glutamine, 100 U/mL penicillin-streptomycin (GIBCO by Life Technologies, Grand Island, N.Y., USA), and incubated at 37° C. in a controlled humidified atmosphere with 5% CO2. Cell count was performed using trypan blue (0.4% Sigma-Aldrich), a Neubauer chamber and an optic microscope (Zeiss Primo Star) as proposed by the ATCC's standard protocols. Flow Cytometry. Cell Death Induction, and Inhibition Annexin-V-allophycocyanin (Ann-V-APC 0.1 μg/ml; BD Pharingen, San Jose Calif., USA), propidium iodide (PI, 0.5 μg/ml Sigma-Aldrich), and tetramethylrhodamine ethyl ester (TMRE, 20 nM, Sigma-Aldrich) were used for phosphatidylserine exposure, cell viability, and mitochondrial transmembrane potential (UΨm) quantification, respectively, in a BD AccuryC6 flow cytometer (BD Biosciences) (total population 10,000 cells). Data were analyzed using FlowJo software. 1×10^6 cells/mL were treated for 2h with PKHB1 (as indicated). For the inhibition assays, calcium chelator, BAPTA (5 mM, CalbioChem, Merck, Billerica Mass., USA); or the pancaspase inhibitor Q-VD-OPh (QVD, 10 μM, BioVision, Milpitas Calif., USA); were added 30 min before PKHB1.

[3] = Cell death by Annexin-V-APC/PI flow cytometry; format: cell-based, human; settings: CEM, 2h; read-out: cytotoxic concentration that induces around 50% of cell death (CC50)
Method: as §1

[4] = system: CEM; experiment: ATP release assay (luciferase bioluminescence); format: cell-based, human; settings: CC50 and CC100, 2h
Method: (§2) 1×10^6 cells/mL were treated with PKHB1 (CC50 and CC100 for each cell lines) for 2h. Supernatants were used to assess extracellular ATP by a luciferase assay (ENLITEN kit, Promega, Madison Wis., USA) following the manufacturer's instructions. Bioluminescence was assessed in a microplate reader (Synergy HT, BioTek, Software Gen5, Winooski, Vt., USA) at 560 nm.

[5] = system: MOLT-4; experiment: ATP release assay (luciferase bioluminescence); format: cell-based, human; settings: CC50 and CC100, 2h
Method: as §2

[6] = system: MOLT-4; experiment: Cell death by Annexin-V-APC/PI flow cytometry; format: cell-based; settings: MOLT-4, 2h; for cell death percentage: PKHB1 200 μM
Method: as §1

[7] = Cell death by Annexin-V-APC/PI flow cytometry; format: cell-based; settings: MOLT-4, 2h; read-out: cytotoxic concentration that induces around 50% of cell death (CC50)
Method: as §1

[8] = system: human PBMCs and CD4+ and CD8+ human T cells from healthy donors; experiment: Selectivity on non-cancerous human cells (Annexin-V/PI); format: cell-based
Method: Peripheral blood was collected from 10 healthy volunteers after obtaining written informed consent. This study was approved by the Institutional Ethics Committee at the Universidad Autonoma de Nuevo Leon, College of Biological Sciences. The animal study was approved by the Animal Ethical Committee (CEIBA), Number: 01/2015. All experiments were conducted according to Mexican regulation NOM-062-ZOO-1999. The blood from sacrificed mice was obtained by cardiac puncture, while human blood was collected by venipuncture. Peripheral blood mononuclear cells (PBMCs) isolation was performed by density gradient centrifugation using Ficoll-Hypaque-1119 (Sigma-Aldrich, St Louis, Mo., USA). 4×10^5 white blood cells were washed and seeded. […]
CEM, MOLT-4 (T-acute lymphoblastic leukemia, T-ALL), and L5178Y-R (murine lymphoblastic T cell line) were obtained from ATCC. […] Cell Death Induction, and Inhibition Annexin-V-allophycocyanin (Ann-V-APC 0.1 μg/ml; BD Pharingen, San Jose Calif., USA), propidium iodide (PI, 0.5 μg/ml Sigma-Aldrich), and tetramethylrhodamine ethyl ester (TMRE, 20 nM, Sigma-Aldrich) were used for phosphatidylserine exposure, cell viability, and mitochondrial transmembrane potential (UΨm) quantification, respectively, in a BD AccuryC6 flow cytometer (BD Biosciences) (total population 10,000 cells). Data were analyzed using FlowJo software. […]

[9] = system: murine PBMCs and primary cultures of bone marrow, spleen, thymus and lymph nodes; experiment: Selectivity on non-cancerous murine cells (Ann/PI, MTT); format: cell-based; settings: lymph nodes of healthy BALB/c mice
Method: Peripheral blood was collected from 10 healthy volunteers after obtaining written informed consent. This study was approved by the Institutional Ethics Committee at the Universidad Autonoma de Nuevo Leon, College of Biological Sciences. The animal study was approved by the Animal Ethical Committee (CEIBA), Number: 01/2015. All experiments were conducted according to Mexican regulation NOM-062-ZOO-1999. The blood from sacrificed mice was obtained by cardiac puncture, while human blood was collected by venipuncture. Peripheral blood mononuclear cells (PBMCs) isolation was performed by density gradient centrifugation using Ficoll-Hypaque-1119 (Sigma-Aldrich, St Louis, Mo., USA). 4×10^5 white blood cells were washed and seeded. CD4+/CD8+ characterization was done using primary antibodies (CD4; MT310 sc-19641 and CD8; 32-M4 sc-1177, Santa Cruz, Calif., USA).
Spleen, thymus, lymphatic node, and bone marrow cells were obtained from female BALB/c mice post-sacrifice. Spleen cells were obtained through perfusion, thymocytes and lymphatic node cells were obtained by maceration, and bone morrow cells (from one femur and tibia per mouse) were flushed with PBS. Cells washed and counted using trypan blue staining.
CEM, MOLT-4 (T-acute lymphoblastic leukemia, T-ALL), and L5178Y-R (murine lymphoblastic T cell line) were obtained from ATCC. […] Data were analyzed using FlowJo software. […]

[10] = system: CEM; experiment: Calreticulin exposure (flow cytometry, confocal microscopy); format: cell-based, human; settings: CC50 of PKHB1, 2h
Method: (§3) 1×10^6 cells/mL were plated, treated with PKHB1, and incubated for 2h. Cells were harvested, washed, and stained with Calreticulin-PE (FMC-75, Enzo Life Science, Farmingdale, N.Y., USA) antibody (1:1000) in FACS buffer. After 1h of incubation in darkness at room temperature, cells were washed and resuspended in 100Lp of FACS buffer to be assessed by flow cytometry. For confocal microscopy (OlympusX70), poly-Llysine was added 24h to sterile coverslips and 1×10^6 cells/mL were seeded. PKHB1 was added and incubated for 2h. Then, the cells were stained with Calreticulin-PE antibody (1:500) and Hoechst, incubated 1h, and assessed by confocal microscopy.

[11] = system: MOLT-4; experiment: as above; format: cell-based, human; settings: CC50 of PKHB1, 2h
Method: as §3

[12] = PKHB1-treated vs untreated tumor-bearing mice, trypan blue count
[13] = pre-incubated 30 min with Ca2+ chelator BAPTA
[14] = pre-incubated 30 min with pan-caspase inhibitor Q-VD-OPH

Structure (SMILES): CSCC[C@H](NC(=O)[C@@H](NC(=O)[C@@H](NC(=O)[C@H](Cc1ccc(O)cc1)NC(=O)[C@H](Cc1ccccc1)NC(=O)[C@H](CCCNC(=N)N)NC(=O)[C@H](N)CCCCN)C(C)C)C(C)C)C(=O)N[C@@H](Cc1c[nH]c2ccccc12)C(=O)N[C@@H](CCCCN)C(=O)N[C@H](CCCCN)C(=O)O [PKHB1, (D)K-R-F-Y-V-V-M-W-K-(D)K]
- tumor histology (H&E), leukocyte infiltration ([1]; 200 μg PKHB1 intraperitoneally weekly, day 18): contained a mixture of lymphocytes and polymorphonuclear cells
- tumor regression ([1]; 200 μg PKHB1 intraperitoneally weekly, day 30): complete tumor regression in most of the mice
- immunohistochemistry of tumor sections, CD4+ and CD8+ cells ([1]; PKHB1-treated tumor-bearing mice): presence of CD4+ and CD8+ cells
- WBC differential ([1]; PKHB1-treated tumor-bearing mice vs healthy mice): no significant difference
- cell number of BM, spleen and thymus cells [1, 12]: significant increase
- cell number of lymph nodes [1, 12]: significant decrease
- cell death (Ann-V-APC/PI positive cells) ([2]; 100, 200 and 300 μM): concentration-dependent
- cell death percentage ([2]; left alone): 51%±4
- cell death percentage [2, 13]: 18%±11
- cell death percentage [2, 14]: 48%±5
- CC50 [3]: 200 µM
- presence of ATP in supernatants [4]: significantly augmented
- presence of ATP in supernatants [5]: significantly augmented
- cell death (Ann-V-APC/PI positive cells) ([6]; 100, 200 and 300 μM): concentration-dependent
- cell death percentage ([6]; left alone): 57%±4
- cell death percentage [6, 13]: 38%±3
- cell death percentage [6, 14]: 51%±6
- CC50 [7]: 300 µM
- cell viability of non-cancerous cells [8]: did not significantly affected cell viability
- cell viability of non-cancerous cells [9]: did not significantly affected cell viability
- CRT exposure [10]: significant increase
- CRT exposure [11]: significant increase
